The record followed here is ChEMBL document CHEMBL1201862, “PubChem BioAssay data set” (2004).

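Protocol summary: plate cells (96-well), add compound at 5 concentrations, incubate 48 h, interpolate endpoints linearly. Here, GI50 denotes the concentration required for 50% inhibition of growth.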 Activity calls are given as the source filed them. No stated cut-off is given here; in the data, active = GI50 up to about 1.1 µM and inactive = higher. Some results are limits rather than exact numbers.

Among the test systems are MCF7; COLO 205; OVCAR-4; K562; CAKI-1; MOLT-4; UACC-257; SF-539; KM12; SNB-19; SK-MEL-28; SR; SF-295; RPMI-8226; M14; OVCAR-5; CCRF-CEM; DU-145; SNB-75.
Experiment in all cases: NCI-60 cell line screen, 48 h

Consider `Nc1ccc(-c2cssc2=S)cc1`, for which the GI50 in the assay on MCF7 is 52.1 µM (inactive); in the assay on COLO 205, 42.2 µM (inactive); in the assay with OVCAR-4 it was 49.1 µM (inactive); in the assay with K562 it was 3.21 µM (inactive); with CAKI-1, 37.9 µM (inactive); with MOLT-4, 1.17 µM (inactive). Besides, the GI50 is 59.6 µM (inactive) in the assay with UACC-257; 52.8 µM (inactive) with SF-539; 42 µM (inactive) in the assay with KM12; > 100 µM (inactive) in the assay with SNB-19; 49.7 µM (inactive) in the assay on SK-MEL-28; 2.64 µM (inactive) with SR. In addition, the GI50 in the assay on SF-295 was 33.3 µM (inactive); in the assay with RPMI-8226, 0.836 µM (active); in the assay with M14 it was 75.7 µM (inactive); with OVCAR-5, > 100 µM (inactive).

For the compound `C/C=C/CC(C(=O)OCC)(N(C)C(=O)OC(C)(C)C)S(=O)(=O)c1ccc(C)cc1` (centres undefined), the GI50 was 53.7 µM (inactive) in the assay with MCF7; 68.1 µM (inactive) in the assay with COLO 205; > 100 µM (inactive) with OVCAR-4; 70.5 µM (inactive) in the assay on K562; > 100 µM (inactive) in the assay with CAKI-1; > 100 µM (inactive) in the assay with MOLT-4. Besides, the GI50 in the assay with UACC-257 was > 100 µM (inactive); in the assay on CCRF-CEM, > 100 µM (inactive); in the assay with SF-539, > 100 µM (inactive); in the assay with KM12 it was 48.2 µM (inactive); in the assay with SNB-19, > 100 µM (inactive); with SK-MEL-28 it was > 100 µM (inactive). Besides, the GI50 with DU-145 was > 100 µM (inactive); with SF-295 it was 63.7 µM (inactive); in the assay with RPMI-8226, 52.8 µM (inactive); with M14 it was 50.6 µM (inactive); in the assay on OVCAR-5, > 100 µM (inactive).

Regarding `Clc1cc(-c2ccccc2)nc(Nc2nc3ccccc3[nH]2)n1`, the GI50 with COLO 205 is 13.8 µM (inactive); in the assay with OVCAR-4 it was 15.9 µM (inactive); in the assay with K562 it was 4.05 µM (inactive); in the assay with CAKI-1 it was 2.14 µM (inactive); with MOLT-4, 22.3 µM (inactive); in the assay on UACC-257 it was 20.6 µM (inactive). Moreover, the GI50 in the assay on CCRF-CEM is 6.08 µM (inactive); in the assay on SF-539, > 100 µM (inactive); in the assay with KM12, 40.2 µM (inactive); with SNB-19, 83 µM (inactive); in the assay on SNB-75, 34.4 µM (inactive); with SR, 2.84 µM (inactive). Moreover, the GI50 with DU-145 is > 100 µM (inactive); in the assay with SF-295 it was 37.1 µM (inactive); with RPMI-8226 it was > 100 µM (inactive); with M14 it was 23.7 µM (inactive); in the assay with OVCAR-5 it was > 100 µM (inactive).

For `O=C(OCc1ccccc1CN1CCOCC1)c1ccc(Br)cc1`, the GI50 in the assay with MCF7 was 39.6 µM (inactive); with COLO 205, 74.6 µM (inactive); in the assay on OVCAR-4, 43.5 µM (inactive); with K562, 0.0209 µM (active); with UACC-257 it was 43.2 µM (inactive); in the assay with SF-539, > 100 µM (inactive). For the same compound, the GI50 was > 100 µM (inactive) in the assay with SNB-19; > 100 µM (inactive) with SNB-75; 92 µM (inactive) with SK-MEL-28; > 100 µM (inactive) with DU-145; 22.1 µM (inactive) with RPMI-8226; 52.8 µM (inactive) in the assay with M14. The GI50 in the assay on OVCAR-5 is 73.1 µM (inactive).

As for `CC1=C(\C=C/C(C)=C/C=C/C(C)=C/C=C/C=C(C)\C=C\C=C(C)/C=C/C2=C(C)CCCC2(C)C)C(C)(C)CCC1`, the GI50 in the assay on MCF7 was 75.2 µM (inactive); in the assay on COLO 205, 52.6 µM (inactive); in the assay with OVCAR-4, > 100 µM (inactive); in the assay with K562, > 100 µM (inactive); with MOLT-4, > 100 µM (inactive); with UACC-257, > 100 µM (inactive). In addition, the GI50 is > 100 µM (inactive) with CCRF-CEM; 39.6 µM (inactive) in the assay on KM12; > 100 µM (inactive) with SNB-19; > 100 µM (inactive) with SNB-75; 46.5 µM (inactive) in the assay on SK-MEL-28; > 100 µM (inactive) with DU-145. Besides, the GI50 in the assay on SF-295, in the assay on M14 and in the assay with OVCAR-5 was > 100 µM (inactive) in each case.

Take `C(=C/c1ccc2nc(-c3ccc(/C=C/C=N/NC4=NCCCN4)cc3)cn2c1)/C=N/NC1=NCCCN1`: the GI50 was > 100 µM (inactive) with COLO 205; > 100 µM (inactive) with OVCAR-4; 4.39 µM (inactive) in the assay with K562; 12.1 µM (inactive) with CAKI-1; 42.2 µM (inactive) in the assay on MOLT-4; 10.6 µM (inactive) with UACC-257. The GI50 was 35.7 µM (inactive) in the assay with CCRF-CEM; 25.5 µM (inactive) with SF-539; 6.31 µM (inactive) in the assay on KM12; 89.7 µM (inactive) in the assay with SNB-19; 35.7 µM (inactive) with SNB-75; > 100 µM (inactive) with SK-MEL-28. The GI50 in the assay with SR is 31.2 µM (inactive); in the assay with DU-145, 17.5 µM (inactive); in the assay on SF-295, > 100 µM (inactive); in the assay with RPMI-8226 it was 0.822 µM (active); in the assay with M14, 66.4 µM (inactive); with OVCAR-5 it was 49.9 µM (inactive).

Regarding `Cn1c2ccccc2c(=O)c2ccc(Cl)cc21`, the GI50 in the assay on MCF7, in the assay with COLO 205, in the assay with OVCAR-4, with K562, in the assay with MOLT-4 and in the assay on CCRF-CEM was > 10 µM (inactive) throughout. The GI50 was 2.51 µM (inactive) in the assay with SF-539; > 10 µM (inactive) with KM12; 0.0676 µM (active) in the assay with SNB-19; 8.97 µM (inactive) in the assay with SNB-75; > 10 µM (inactive) with SK-MEL-28; > 10 µM (inactive) in the assay on SR. For the same compound, the GI50 in the assay with SF-295 and in the assay on RPMI-8226 was > 10 µM (inactive) each time.

On to `CCCCC(C(=O)N/N=C/c1ccc([N+](=O)[O-])o1)C(=O)N/N=C/c1ccc([N+](=O)[O-])o1`, for which the GI50 with MCF7 is 4.51 µM (inactive); in the assay with COLO 205, 4.28 µM (inactive); with OVCAR-4 it was 1.74 µM (inactive); in the assay on K562, 3.28 µM (inactive); in the assay with CAKI-1, 4.06 µM (inactive); with MOLT-4, 2.09 µM (inactive). In addition, the GI50 with CCRF-CEM is 0.977 µM (active); with SF-539 it was 10.1 µM (inactive); in the assay with KM12 it was 3.66 µM (inactive); with SNB-19 it was 3.64 µM (inactive); in the assay with SNB-75, 17.9 µM (inactive); in the assay with SK-MEL-28, 3.96 µM (inactive). Also, the GI50 was 5.37 µM (inactive) in the assay on DU-145; 15.7 µM (inactive) in the assay on SF-295; 0.682 µM (active) in the assay on RPMI-8226; 3.81 µM (inactive) in the assay on M14; 2.81 µM (inactive) in the assay on OVCAR-5.

As to `CN(C)c1ccc(/C=C2\N=C(c3ccccc3)N(c3nc4ccc(Sc5ccccc5)cc4[nH]3)C2=O)cc1`, the GI50 is 30 µM (inactive) in the assay on MCF7; 21.6 µM (inactive) in the assay with COLO 205; 40.3 µM (inactive) in the assay with OVCAR-4; 26.4 µM (inactive) with K562; 35.4 µM (inactive) with CAKI-1; 30.2 µM (inactive) in the assay with MOLT-4. For the same compound, the GI50 in the assay on UACC-257 was 24.3 µM (inactive); in the assay with CCRF-CEM, 16.7 µM (inactive); with KM12, 27.8 µM (inactive); in the assay on SNB-19 it was 49.1 µM (inactive); in the assay on SNB-75 it was 53.2 µM (inactive); with SK-MEL-28, 57.1 µM (inactive). The GI50 in the assay on DU-145 is 77.4 µM (inactive); with SF-295 it was 23.6 µM (inactive); in the assay with RPMI-8226, 24.8 µM (inactive); in the assay with M14 it was 43.6 µM (inactive); in the assay on OVCAR-5 it was 41.8 µM (inactive).
